Source: publication PMC3775635, “Do N-arachidonyl-glycine (NA-glycine) and 2-arachidonoyl glycerol (2-AG) share mode of action and the binding site on the β2 subunit of GABAA receptors?” (PeerJ, 2013)
pEC50: −log10 of the molar value.

Target: T1, GABAA receptor β2 subunit (α1β2γ2 GABAA receptor) (Rattus norvegicus, UniProt P63138)
T1 construct: gene Gabrb2; recombinant α1β2γ2 receptor expressed in Xenopus oocytes; also concatenated α1-β2-α1/γ2-β2; with GABAA receptor α1 and γ2 subunits
Assay: two-electrode voltage clamp in Xenopus oocytes, potentiation of GABA currents; beta1/beta2 concatemers and point mutants
Assay type: cell-based

T1 sequence (P63138 26-474): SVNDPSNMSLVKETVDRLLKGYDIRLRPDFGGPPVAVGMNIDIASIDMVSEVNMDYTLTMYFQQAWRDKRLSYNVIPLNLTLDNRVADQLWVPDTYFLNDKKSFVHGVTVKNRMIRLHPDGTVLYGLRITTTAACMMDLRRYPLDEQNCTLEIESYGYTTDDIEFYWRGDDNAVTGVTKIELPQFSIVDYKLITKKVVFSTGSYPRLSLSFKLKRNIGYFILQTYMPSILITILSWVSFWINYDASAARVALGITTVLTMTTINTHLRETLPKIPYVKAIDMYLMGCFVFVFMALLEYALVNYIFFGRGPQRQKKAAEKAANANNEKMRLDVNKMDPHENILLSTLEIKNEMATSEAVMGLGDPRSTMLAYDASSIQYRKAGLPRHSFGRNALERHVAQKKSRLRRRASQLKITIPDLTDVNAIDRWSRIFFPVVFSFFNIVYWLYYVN
T1 sequence (P62813 28-455 partner): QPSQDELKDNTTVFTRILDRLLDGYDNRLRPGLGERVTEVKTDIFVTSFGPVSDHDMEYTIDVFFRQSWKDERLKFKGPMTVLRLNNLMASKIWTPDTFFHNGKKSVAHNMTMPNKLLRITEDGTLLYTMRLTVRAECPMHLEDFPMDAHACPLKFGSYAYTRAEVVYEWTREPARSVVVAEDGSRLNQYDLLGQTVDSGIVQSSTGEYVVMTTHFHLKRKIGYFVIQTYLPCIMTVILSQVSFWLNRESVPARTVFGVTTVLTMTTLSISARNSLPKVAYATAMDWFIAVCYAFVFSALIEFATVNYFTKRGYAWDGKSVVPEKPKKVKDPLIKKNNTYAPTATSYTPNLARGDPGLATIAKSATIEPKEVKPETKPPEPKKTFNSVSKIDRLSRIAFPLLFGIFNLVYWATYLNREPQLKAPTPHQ
T1 sequence (P18508 39-466 partner): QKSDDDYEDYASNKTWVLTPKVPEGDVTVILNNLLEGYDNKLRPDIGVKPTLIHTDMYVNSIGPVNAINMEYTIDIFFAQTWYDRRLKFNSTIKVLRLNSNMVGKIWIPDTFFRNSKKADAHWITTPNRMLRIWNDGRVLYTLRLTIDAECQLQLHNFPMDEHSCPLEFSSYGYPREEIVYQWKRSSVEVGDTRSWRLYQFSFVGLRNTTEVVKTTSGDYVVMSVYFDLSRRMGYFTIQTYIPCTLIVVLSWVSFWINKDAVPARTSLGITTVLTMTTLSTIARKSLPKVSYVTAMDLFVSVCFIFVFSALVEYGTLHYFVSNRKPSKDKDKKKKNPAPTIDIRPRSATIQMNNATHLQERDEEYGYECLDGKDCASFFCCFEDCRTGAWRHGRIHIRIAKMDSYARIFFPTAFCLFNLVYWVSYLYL

## CCCCC/C=C\C/C=C\C/C=C\C/C=C\CCCC(=O)NCC(=O)O [NA-glycine]
  pEC50: 5.00 to 6.00
